ChEMBL document CHEMBL5291721, “A preclinical secondary pharmacology resource illuminates target-adverse drug reaction associations of marketed drugs” (Nat Commun, 2023)

Columns and labels:
[1] = target: T1, 5-hydroxytryptamine receptor 2C (Homo sapiens, UniProt P28335)
T1 sequence (P28335 whole entry): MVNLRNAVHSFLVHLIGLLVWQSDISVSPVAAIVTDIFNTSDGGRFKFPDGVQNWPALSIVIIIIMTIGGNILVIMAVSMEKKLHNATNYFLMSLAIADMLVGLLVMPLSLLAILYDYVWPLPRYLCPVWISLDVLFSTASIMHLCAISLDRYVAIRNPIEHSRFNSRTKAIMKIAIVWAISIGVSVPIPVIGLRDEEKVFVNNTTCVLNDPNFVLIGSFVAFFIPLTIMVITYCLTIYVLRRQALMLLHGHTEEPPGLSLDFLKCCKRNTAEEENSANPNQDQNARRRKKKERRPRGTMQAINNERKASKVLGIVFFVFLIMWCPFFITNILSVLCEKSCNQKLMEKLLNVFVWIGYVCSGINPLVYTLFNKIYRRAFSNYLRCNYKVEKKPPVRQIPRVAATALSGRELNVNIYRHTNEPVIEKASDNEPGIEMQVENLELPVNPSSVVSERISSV

[2] = target: Adenosine receptor A2a (Homo sapiens, UniProt P29274)
Sequence of Adenosine receptor A2a (P29274 whole entry): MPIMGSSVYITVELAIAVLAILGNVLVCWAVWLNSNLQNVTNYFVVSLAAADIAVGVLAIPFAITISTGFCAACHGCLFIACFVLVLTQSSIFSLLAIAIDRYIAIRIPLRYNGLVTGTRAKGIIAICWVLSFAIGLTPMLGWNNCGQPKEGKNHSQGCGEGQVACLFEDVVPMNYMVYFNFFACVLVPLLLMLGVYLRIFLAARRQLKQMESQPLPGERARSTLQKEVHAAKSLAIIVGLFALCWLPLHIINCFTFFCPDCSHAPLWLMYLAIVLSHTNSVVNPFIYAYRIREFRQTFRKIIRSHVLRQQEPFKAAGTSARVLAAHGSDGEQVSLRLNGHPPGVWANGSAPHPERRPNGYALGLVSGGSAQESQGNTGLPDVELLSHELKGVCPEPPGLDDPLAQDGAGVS

[3] = target: T2, 5-hydroxytryptamine receptor 1A (Homo sapiens, UniProt P08908); type: functional, cell-based
T2 sequence (P08908 whole entry): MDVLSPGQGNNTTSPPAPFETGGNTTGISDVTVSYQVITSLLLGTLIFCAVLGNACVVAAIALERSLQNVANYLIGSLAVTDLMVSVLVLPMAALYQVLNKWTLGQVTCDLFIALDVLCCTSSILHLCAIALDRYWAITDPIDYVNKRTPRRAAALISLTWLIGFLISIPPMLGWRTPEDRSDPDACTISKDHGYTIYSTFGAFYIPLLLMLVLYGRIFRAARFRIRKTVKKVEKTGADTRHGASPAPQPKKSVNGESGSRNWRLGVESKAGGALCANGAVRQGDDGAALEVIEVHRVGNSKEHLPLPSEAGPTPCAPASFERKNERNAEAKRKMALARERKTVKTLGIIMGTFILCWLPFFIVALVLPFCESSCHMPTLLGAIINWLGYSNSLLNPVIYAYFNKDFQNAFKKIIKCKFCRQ

[4] = target: T3, Cholecystokinin receptor type A (Homo sapiens, UniProt P32238)
T3 sequence (P32238 whole entry): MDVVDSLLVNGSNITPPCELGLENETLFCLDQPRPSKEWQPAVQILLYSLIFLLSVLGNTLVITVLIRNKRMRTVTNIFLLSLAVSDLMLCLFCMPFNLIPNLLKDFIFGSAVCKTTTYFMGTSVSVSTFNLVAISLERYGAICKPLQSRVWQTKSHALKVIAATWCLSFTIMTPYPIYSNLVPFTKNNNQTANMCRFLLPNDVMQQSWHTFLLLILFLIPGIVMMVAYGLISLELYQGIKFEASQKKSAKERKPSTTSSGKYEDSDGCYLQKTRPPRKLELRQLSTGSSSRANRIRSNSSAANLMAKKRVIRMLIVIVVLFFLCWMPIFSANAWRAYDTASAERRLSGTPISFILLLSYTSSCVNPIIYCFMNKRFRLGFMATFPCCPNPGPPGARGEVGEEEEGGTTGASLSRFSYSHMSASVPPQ

[5] = target: Growth hormone secretagogue receptor type 1 (Homo sapiens, UniProt Q92847)
Sequence of Growth hormone secretagogue receptor type 1 (Q92847 whole entry): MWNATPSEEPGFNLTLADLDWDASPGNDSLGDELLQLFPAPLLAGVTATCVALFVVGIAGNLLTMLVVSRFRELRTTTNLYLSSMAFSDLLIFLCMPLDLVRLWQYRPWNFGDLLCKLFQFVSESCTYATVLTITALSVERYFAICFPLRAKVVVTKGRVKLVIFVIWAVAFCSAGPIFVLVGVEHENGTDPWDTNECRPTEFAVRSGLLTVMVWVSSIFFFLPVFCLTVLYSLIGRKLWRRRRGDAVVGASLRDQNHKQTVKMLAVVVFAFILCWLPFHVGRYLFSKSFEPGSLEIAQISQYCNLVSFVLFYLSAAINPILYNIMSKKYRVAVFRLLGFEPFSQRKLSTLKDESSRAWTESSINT

[6] = target: Kappa-type opioid receptor (Homo sapiens, UniProt P41145)
Sequence of Kappa-type opioid receptor (P41145 whole entry): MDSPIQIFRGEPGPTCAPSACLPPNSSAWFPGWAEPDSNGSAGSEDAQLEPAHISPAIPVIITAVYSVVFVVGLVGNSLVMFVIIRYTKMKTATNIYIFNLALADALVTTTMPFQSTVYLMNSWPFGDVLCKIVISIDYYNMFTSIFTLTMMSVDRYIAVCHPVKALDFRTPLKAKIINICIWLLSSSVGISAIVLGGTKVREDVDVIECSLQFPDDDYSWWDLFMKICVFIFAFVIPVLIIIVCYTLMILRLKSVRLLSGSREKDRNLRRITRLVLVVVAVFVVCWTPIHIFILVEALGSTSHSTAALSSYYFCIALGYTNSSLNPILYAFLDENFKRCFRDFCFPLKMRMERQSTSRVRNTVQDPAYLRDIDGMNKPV

[7] = target: Gamma-aminobutyric acid receptor subunit alpha-1 (Rattus norvegicus, UniProt P62813); type: functional
Sequence of Gamma-aminobutyric acid receptor subunit alpha-1 (P62813 whole entry): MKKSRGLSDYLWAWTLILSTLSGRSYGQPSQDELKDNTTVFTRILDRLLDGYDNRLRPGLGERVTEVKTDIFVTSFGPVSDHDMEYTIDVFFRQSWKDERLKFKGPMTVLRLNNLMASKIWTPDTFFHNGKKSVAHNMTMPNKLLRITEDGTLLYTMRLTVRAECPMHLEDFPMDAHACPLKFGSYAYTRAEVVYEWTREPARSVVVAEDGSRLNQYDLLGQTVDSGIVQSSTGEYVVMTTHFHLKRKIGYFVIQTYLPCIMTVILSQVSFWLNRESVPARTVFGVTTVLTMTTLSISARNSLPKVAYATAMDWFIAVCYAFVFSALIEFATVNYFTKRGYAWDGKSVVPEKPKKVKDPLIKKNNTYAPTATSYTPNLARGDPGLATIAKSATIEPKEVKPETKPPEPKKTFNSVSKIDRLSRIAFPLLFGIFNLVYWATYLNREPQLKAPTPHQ

[8] = target: T4, B2 bradykinin receptor (Homo sapiens, UniProt P30411)
T4 sequence (P30411 whole entry): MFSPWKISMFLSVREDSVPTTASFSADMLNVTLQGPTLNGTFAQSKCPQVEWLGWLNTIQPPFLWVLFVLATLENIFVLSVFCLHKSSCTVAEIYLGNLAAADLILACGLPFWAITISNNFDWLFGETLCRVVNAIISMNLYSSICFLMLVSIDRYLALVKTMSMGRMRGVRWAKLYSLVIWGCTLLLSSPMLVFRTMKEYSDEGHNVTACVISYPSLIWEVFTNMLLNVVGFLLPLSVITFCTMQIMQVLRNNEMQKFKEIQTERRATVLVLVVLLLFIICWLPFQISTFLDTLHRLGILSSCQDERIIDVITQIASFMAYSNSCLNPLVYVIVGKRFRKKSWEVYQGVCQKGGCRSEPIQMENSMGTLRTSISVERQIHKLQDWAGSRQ
Also: assay procedure not described here.

Row | SMILES | AC50 [1] [µM] | AC50 [2] [µM] | AC50 [3] [µM] | AC50 [4] [µM] | AC50 [5] [µM] | AC50 [6] [µM] | AC50 [7] [µM] | AC50 [8] [µM]
1 | CC(=N)N1CC[C@H](SC2=C(C(=O)O)N3C(=O)[C@H]([C@@H](C)O)[C@H]3C2)C1 | > 300 | 300 | > 300 | > 300 | > 300 | – | – | –
2 | CC(/C=C1\SC(=S)N(CC(=O)O)C1=O)=C\c1ccccc1 | 6.4 | 26 | 21 | > 30 | > 30 | 28 | > 30 | > 10
3 | CC1(C)S[C@@H]2[C@H](NC(=O)[C@H](N)c3ccc(O)cc3)C(=O)N2[C@H]1C(=O)O [AMOXICILLIN] | > 30 | > 30 | > 10 | > 30 | > 30 | > 30 | > 30 | > 30
4 | O=C1CN2Cc3c(ccc(Cl)c3Cl)N=C2N1 [ANAGRELIDE] | > 30 | > 30 | – | > 30 | > 30 | > 10 | > 10 | > 30
5 | CNCC[C@@H](Oc1ccccc1C)c1ccccc1 [ATOMOXETINE] | – | > 30 | – | > 30 | > 30 | 1.8 | – | > 30
6 | CCc1oc2ccccc2c1C(=O)c1cc(Br)c(O)c(Br)c1 [BENZBROMARONE] | > 30 | > 30 | > 30 | > 30 | > 30 | > 10 | > 30 | > 30
7 | C=C(C)[C@@H]1CCC(C)=C[C@H]1c1c(O)cc(CCCCC)cc1O [CANNABIDIOL] | > 30 | > 30 | > 10 | 18.3 | > 30 | – | > 30 | –
8 | CO/N=C(\C(=O)N[C@@H]1C(=O)N2C(C(=O)O)=C(COC(N)=O)CS[C@H]12)c1ccco1 [CEFUROXIME] | > 30 | > 30 | > 30 | > 30 | > 30 | > 30 | > 30 | > 30
9 | [H]/N=C(\N/C(=N/[H])NCCCCCCNC(=N)NC(=N)Nc1ccc(Cl)cc1)Nc1ccc(Cl)cc1 [CHLORHEXIDINE] | 5.4 | > 30 | 8.3 | 15.9 | 1 | 3.99 | > 10 | –
10 | Clc1cccc(Cl)c1N=C1NCCN1 [CLONIDINE] | > 30 | > 30 | > 10 | > 30 | > 30 | – | > 10 | > 30
11 | CN1C[C@H](C(=O)N[C@]2(C)O[C@@]3(O)[C@@H]4CCCN4C(=O)[C@H](Cc4ccccc4)N3C2=O)C[C@@H]2c3cccc4[nH]cc(c34)C[C@H]21 [DIHYDROERGOTAMINE] | 0.5 | > 30 | – | > 30 | 4.39 | > 10 | > 10 | > 30
12 | CNCC[C@H](Oc1cccc2ccccc12)c1cccs1 [DULOXETINE] | 13 | > 30 | – | > 30 | 14.7 | – | > 10 | > 30
13 | CC1(C)O[C@@H]2C[C@H]3[C@@H]4C[C@H](F)C5=CC(=O)C=C[C@]5(C)[C@H]4[C@@H](O)C[C@]3(C)[C@]2(C(=O)CO)O1 [FLUNISOLIDE] | > 30 | > 30 | 0.56 | > 30 | > 30 | – | > 30 | –
14 | CCC(=O)O[C@@H](O[P@](=O)(CCCCc1ccccc1)CC(=O)N1C[C@H](C2CCCCC2)C[C@H]1C(=O)O)C(C)C [FOSINOPRIL] | > 30 | – | > 30 | – | – | > 30 | > 30 | –
15 | C[C@H]1Oc2cc(cnc2N)-c2c(nn(C)c2C#N)CN(C)C(=O)c2ccc(F)cc21 [LORLATINIB] | > 30 | > 30 | 6.2 | > 30 | > 30 | – | > 30 | –
16 | CC[C@@H](CO)NC(=O)[C@@H]1C=C2c3cccc4[nH]cc(c34)C[C@H]2N(C)C1 [METHYLERGONOVINE] | 0.12 | > 30 | – | > 30 | > 30 | > 30 | > 30 | > 30
17 | CNCCC=C1c2ccccc2CCc2ccccc21 [NORTRIPTYLINE] | – | > 30 | 8 | > 30 | > 30 | – | > 30 | > 30
18 | CN(C)c1cc(CNCC(C)(C)C)c(O)c2c1C[C@H]1C[C@H]3[C@H](N(C)C)C(O)=C(C(N)=O)C(=O)[C@@]3(O)C(O)=C1C2=O [OMADACYCLINE] | > 30 | > 30 | – | > 30 | > 30 | – | > 30 | > 30
19 | COc1ccc(Cc2nccc3cc(OC)c(OC)cc23)cc1OC [PAPAVERINE] | > 30 | > 30 | – | > 30 | > 30 | > 30 | > 30 | > 30
20 | CNC(=O)c1cc(Oc2ccc(NC(=O)Nc3ccc(Cl)c(C(F)(F)F)c3)c(F)c2)ccn1 [REGORAFENIB] | – | > 30 | – | – | – | – | – | –
21 | CCOc1cc(CC(=O)N[C@@H](CC(C)C)c2ccccc2N2CCCCC2)ccc1C(=O)O [REPAGLINIDE] | > 30 | > 30 | > 30 | > 30 | > 30 | – | > 30 | –
22 | NC(=O)c1ncn([C@@H]2O[C@H](CO)[C@@H](O)[C@H]2O)n1 [RIBAVIRIN] | > 30 | > 10 | – | > 10 | > 10 | > 10 | > 10 | > 10
23 | O=C(Nc1c(Cl)cncc1Cl)c1ccc(OC(F)F)c(OCC2CC2)c1 [ROFLUMILAST] | > 30 | > 30 | – | > 30 | > 30 | > 30 | > 30 | > 30
24 | CCCN(CCC)CCc1cccc2c1CC(=O)N2 [ROPINIROLE] | > 30 | > 30 | > 30 | > 30 | > 30 | – | > 30 | > 30
25 | CCCN(CCc1cccs1)[C@H]1CCc2c(O)cccc2C1 [ROTIGOTINE] | > 30 | > 30 | 0.67 | > 30 | 29 | – | > 30 | –
26 | CC[C@H]1OC(=O)[C@H](C)[C@@H](O[C@H]2C[C@@](C)(OC)[C@@H](O)[C@H](C)O2)[C@H](C)[C@@H](O[C@@H]2O[C@H](C)C[C@H](N(C)C)[C@H]2O)[C@](C)(O)C[C@@H](C)/C(=N\OCOCCOC)[C@H](C)[C@@H](O)[C@]1(C)O [ROXITHROMYCIN] | > 30 | > 30 | > 30 | > 30 | > 30 | – | > 30 | –
27 | CN1CCN(CCCN2c3ccccc3Sc3ccc(S(=O)(=O)N(C)C)cc32)CC1 [THIOPROPERAZINE] | 6.14 | – | – | – | – | > 30 | > 30 | –
